The values that follow come from ChEMBL document CHEMBL2434949, “Evaluation of licorice flavonoids as protein tyrosine phosphatase 1B inhibitors” (Bioorg Med Chem Lett, 2013).

Test [1] addresses T1, Tyrosine-protein phosphatase non-receptor type 1 (Homo sapiens, UniProt P18031).
T1 sequence (P18031 whole entry): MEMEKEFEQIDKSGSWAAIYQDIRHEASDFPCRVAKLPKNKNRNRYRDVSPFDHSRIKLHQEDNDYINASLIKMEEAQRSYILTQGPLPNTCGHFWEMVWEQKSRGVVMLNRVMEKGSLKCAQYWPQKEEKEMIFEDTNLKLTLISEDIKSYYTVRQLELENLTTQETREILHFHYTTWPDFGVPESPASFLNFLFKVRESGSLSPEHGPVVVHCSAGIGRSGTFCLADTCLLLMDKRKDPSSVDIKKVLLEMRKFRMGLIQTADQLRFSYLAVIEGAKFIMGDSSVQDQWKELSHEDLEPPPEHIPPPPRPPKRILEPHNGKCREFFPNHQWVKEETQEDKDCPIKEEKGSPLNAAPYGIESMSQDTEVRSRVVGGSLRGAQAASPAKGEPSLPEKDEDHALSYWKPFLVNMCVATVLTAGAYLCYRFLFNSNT
As to the kind of experiment: Inhibition of PTP1B (unknown origin) using p-nitrophenyl phosphate as substrate.

For test [2], the target named is T2, Tyrosine-protein phosphatase non-receptor type 1 (Homo sapiens) (UniProt P18031).
T2 sequence (whole entry): T1 sequence (P18031 whole entry)
As to the kind of experiment: Inhibition of PTP1B (unknown origin) using p-nitrophenyl phosphate as substrate at 100 uM.

Test [3] deals with T3, Tyrosine-protein phosphatase non-receptor type 2 (Homo sapiens) (UniProt P17706).
T3 sequence (whole entry): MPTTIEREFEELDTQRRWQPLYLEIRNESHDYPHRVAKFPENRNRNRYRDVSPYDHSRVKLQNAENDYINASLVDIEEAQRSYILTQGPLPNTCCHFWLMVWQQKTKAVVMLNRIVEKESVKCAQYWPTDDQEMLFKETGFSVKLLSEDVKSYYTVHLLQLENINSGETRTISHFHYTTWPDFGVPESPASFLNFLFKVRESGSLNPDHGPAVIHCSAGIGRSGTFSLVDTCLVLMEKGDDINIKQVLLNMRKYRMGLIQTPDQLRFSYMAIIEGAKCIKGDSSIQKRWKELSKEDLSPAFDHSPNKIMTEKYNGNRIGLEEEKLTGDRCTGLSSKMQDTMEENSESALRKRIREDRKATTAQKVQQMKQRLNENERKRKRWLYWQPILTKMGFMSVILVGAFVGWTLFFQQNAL
Briefly: Inhibition of TCPTP (unknown origin) at 100 uM.

For test [4], the target named is Dual specificity protein phosphatase 3 (Homo sapiens) (UniProt P51452). As to the kind of experiment: Inhibition of VHR (unknown origin) at 100 uM.
Chain of Dual specificity protein phosphatase 3 (Homo sapiens) (P51452 whole entry, looked up): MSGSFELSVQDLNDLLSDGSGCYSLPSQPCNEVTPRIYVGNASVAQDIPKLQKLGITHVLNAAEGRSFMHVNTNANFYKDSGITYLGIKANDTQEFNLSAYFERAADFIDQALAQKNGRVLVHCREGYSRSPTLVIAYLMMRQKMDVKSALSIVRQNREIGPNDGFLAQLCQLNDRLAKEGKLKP
Test [5] concerns the target T2, Tyrosine-protein phosphatase non-receptor type 1 (Homo sapiens).
Description: Competitive inhibition of PTP1B (unknown origin) using p-nitrophenyl phosphate as substrate by Lineweaver-Burk plot analysis
Test [6] shares this target. Briefly: Mixed type inhibition of PTP1B (unknown origin) using p-nitrophenyl phosphate as substrate by Lineweaver-Burk plot analysis.
For test [7] the target is unchanged. As to the kind of experiment: Inhibition of PTP1B in human HepG2 cells assessed as increase of insulin-induced Akt phosphorylation at Ser473 at 20 to 100 uM after 5 mins by Western blotting. It counts as cell-based.
Test [8] has the same target. As to the kind of experiment: Non-competitive inhibition of PTP1B (unknown origin) using p-nitrophenyl phosphate as substrate by Lineweaver-Burk plot analysis.

Calls of active or inactive are those of the source. No cut-off for these calls is given here.

One may read the IC50 as the concentration at which inhibition is half-maximal. In test [1], `CC1(C)C=Cc2c(ccc(C(=O)/C=C/c3ccc(O)cc3)c2O)O1` gave an IC50 of 74.1 µM.
One may read the inhibition as the drop in the measured response relative to a control, in per cent. In the case of `COc1c(/C=C/C(=O)c2ccc(O)cc2)ccc(O)c1O`, the inhibition in test [2] is less than 50%.
On to `CC(C)=CCc1cc([C@@H]2CC(=O)c3ccc(O)c(CC=C(C)C)c3O2)ccc1O` [GLABROL], for which half-maximal inhibition in test [1] (IC50) was put at 37.5 µM.
Turning to `COc1cc(O)cc2occ(-c3cc(O)c(O)c(CC=C(C)C)c3)c(=O)c12`, the inhibition in test [3] was 4%; in test [4], greater than 70%.
For the compound `COc1c(CC=C(C)C)c(O)cc(O)c1-c1oc2cc(O)ccc2c1C`, the inhibition in test [3] turned out to be 4%; in test [4], 35%.
Turning to `O=c1c(O[C@@H]2O[C@H](CO)[C@@H](O)[C@H](O)[C@H]2O)c(-c2ccc(O)cc2)oc2cc(O)cc(O)c12`, in test [2], the inhibition is less than 50%.
The same measure, in the same setting: the value for `CC(C)=CCc1c(O)ccc2c1oc(=O)c1c3ccc(O)cc3oc21` was less than 50%.
`COc1c(/C=C/C(=O)c2ccc(O)cc2)ccc(O)c1CC=C(C)C` displayed an IC50 in test [1] of 57 µM.
For `COc1cc(O[C@@H]2O[C@H](CO)[C@@H](O)[C@H](O)[C@H]2O)c(-c2coc3cc(O)c(OC)cc3c2=O)cc1O`, the inhibition in test [2] is less than 50%.
As to `O=C1C[C@@H](c2ccc(O[C@@H]3O[C@H](CO)[C@@H](O)[C@H](O)[C@H]3O)cc2)Oc2cc(O)ccc21`, in test [2], the inhibition is less than 50%.
Consider `CC(C)=CCc1cc(-c2cc(=O)c3ccc(O)cc3o2)ccc1O`, for which the inhibition in test [2] is less than 50%.
Same read-out and setting: the value for `COc1ccc2c(c1)O[C@H]1c3ccc(O)c(CC=C(C)C)c3OC[C@@H]21` was less than 50%.
Regarding `CC1(C)C=Cc2c(ccc3c2OC[C@@H](c2ccc(O)cc2O)C3)O1` [GLABRIDIN], the midpoint of inhibition in test [1], the IC50, lay at 73.4 µM.
As for `CC(C)=CCc1cc([C@H]2Oc3c(ccc(O)c3CC=C(C)C)C(=O)[C@@H]2O)ccc1O`, inhibition in test [1] was half-maximal at 75.1 µM (IC50).
For `COc1c(/C=C/C(=O)c2ccc(O)c(O)c2)ccc(O)c1CC=C(C)C`, in test [1], the 50% inhibitory concentration (IC50) turned out to be 59.5 µM.
Turning to `O=C1C[C@@H](c2ccc(O)cc2)Oc2cc(O)ccc21`, in test [2], the inhibition was less than 50%.
For `CC(C)=CCc1c(O)ccc2c1O[C@H](c1ccc3c(c1)C(O)C(O)C(C)(C)O3)CC2=O` (some centres undefined), the inhibition in test [2] is less than 50%.
For `CC(C)=CCc1c(O)ccc2c1O/C(=C\c1ccc(O)c(O)c1)C2=O` [LICOAGROAURONE], the values for the inhibition in test [3] and in test [4] were 4% and 50%, respectively. Also, in test [5], the Kic was 24 µM. This compound also registered a half-maximal inhibitory concentration (IC50) in test [1] of 23.9 µM.
Regarding `CC(C)=CCc1cc([C@]23Oc4cc(O)c(CC=C(C)C)cc4C(=O)[C@H]2[C@H]2c4ccc(O)cc4O[C@@H]4Oc5c(ccc(O)c5CC=C(C)C)[C@@]42O3)ccc1O` [LICOAGRODIN], the inhibition worked out at 4% in test [3] and 50% in test [4]. The midpoint of inhibition in test [1], the IC50, lay at 11.5 µM. Further, in test [6], the inhibition entry was “Active”.
`O=c1cc(-c2ccc(O)cc2)oc2c([C@@H]3O[C@H](CO)[C@@H](O)[C@H](O)[C@H]3O)c(O)c([C@@H]3O[C@H](CO)[C@@H](O)[C@H](O)[C@H]3O)c(O)c12`: the inhibition in test [2] was less than 50%.
In test [2], `O=c1cc(-c2ccc(O)cc2)oc2cc(O)ccc12` gave an inhibition of less than 50%.
With `O=c1c(O[C@@H]2O[C@H](CO)[C@@H](O)[C@H](O)[C@H]2O)c(-c2ccc(O)c(O)c2)oc2cc(O)cc(O)c12`, in test [2], the inhibition was less than 50%.
In test [1], `CC(C)=CCc1cc([C@@H]2CC(=O)c3c(O)cc(O)c(CC=C(C)C)c3O2)ccc1O` [LESPEDEZAFLAVANONE B] yielded an IC50 of 62.4 µM.
The compound `COc1ccc(-c2coc3cc(O)c(OC)cc3c2=O)cc1` registered an inhibition in test [2] of less than 50%.
As for `CC(C)=CCc1cc(C(=O)CC(=O)c2cc(CC=C(C)C)c(O)cc2O)ccc1O`, in test [1], it took 32.6 µM to reach half-maximal inhibition (IC50).
Take `CC(C)=CCc1c(O)ccc2c1O[C@H](c1ccc3c(c1)CC(O)C(C)(C)O3)CC2=O` (some centres undefined): in test [1], the IC50 turned out to be 52.2 µM.
In test [2], `COc1cc(O)ccc1/C=C/C(=O)c1ccc(O)cc1` yielded an inhibition of less than 50%.
`COc1c(/C=C/C(=O)c2ccc(O)cc2)ccc2c1CC(C(C)(C)O)O2` (centres undefined) registered an inhibition in test [2] of less than 50%.
Regarding `CC1(C)C=Cc2cc(C(=O)CC(=O)c3ccc(O)cc3)c(O)cc2O1`, the inhibition in test [2] is less than 50%.
`COc1ccc(-c2coc3cc(O)c(OC)cc3c2=O)cc1O` [ODORATIN] registered an IC50 in test [1] of 70 µM.
In test [2], `CC(C)=CCc1c(O)ccc2c1O[C@H](c1ccc3c(c1)C=CC(C)(C)O3)CC2=O` returned an inhibition of less than 50%.
As to `O=c1cc(-c2ccc(O)cc2)oc2c([C@@H]3O[C@H](CO)[C@@H](O)[C@H](O)[C@H]3O)c(O)c([C@@H]3OC[C@H](O)[C@H](O)[C@H]3O)c(O)c12`, in test [2], the inhibition is less than 50%.
In test [1], `CC1(C)C=Cc2c(ccc(-c3coc4cc(O)ccc4c3=O)c2O)O1` [GLABRONE] came in with an IC50 of 66.3 µM.
Still for that read-out and setting: the value for `COc1c([C@H]2c3c(cc(O)c(O)c3OC)C=C(C(=O)c3ccc(O)cc3)[C@H]2C(=O)c2ccc(O)cc2)ccc(O)c1O` (relative stereo) was 36.2 µM; that for `CC1(C)C=Cc2cc(/C=C/C(=O)c3ccc(O)cc3O)ccc2O1` was 44.3 µM.
In turn, `CCCCCCCCCCCCCCCC(=O)C1=C(O)[C@@H](CO)OC1=O` yielded an IC50 in test [1] of 4.6 µM.
Compound `COc1ccc([C@@H]2COc3c(ccc4c3C=CC(C)(C)O4)C2)c(O)c1` displayed an inhibition in test [2] of less than 50%.
Compound `CC(C)=CCc1cc(C[C@@H](O)C(=O)c2cc(CC=C(C)C)c(O)cc2O)ccc1O` returned an IC50 in test [1] of 90.5 µM.
Regarding `CC(C)=CCc1cc([C@@H]2CC(=O)c3ccc(O)cc3O2)ccc1O`, in test [2], the inhibition was less than 50%.
On the same count and under the same terms, next, `CC1(C)C=Cc2c(ccc3c2OC[C@@H](c2ccc(O)c4c2OC(C)(C)C=C4)C3)O1`: less than 50%.
Take `CC(C)=CCc1c(O)ccc(C(=O)/C=C/c2ccc(O)cc2)c1O` [ISOBAVACHALCONE]: the inhibition in test [3] is 4%; in test [4], greater than 70%. In test [1], the IC50 worked out at 27.3 µM. Also, the inhibition entry in test [6] was “Active”.
Take `CC(C)=CCc1cc(C(=O)C2(c3cc(O)c(O)cc3/C=C3\Oc4c(ccc(O)c4CC=C(C)C)C3=O)Oc3cc(O)c(CC=C(C)C)cc3C2=O)ccc1O` (centres undefined) [LICOAGRONE]: the inhibition in test [3] is 4%; in test [4] it was greater than 70%. Besides, the outcome in test [7] was Active. Moreover, the Kiuc in test [8] amounted to 6.3 µM. For the same compound, half-maximal inhibition in test [1] (IC50) required 6 µM.
Take `CC1(C)C=Cc2cc([C@@H]3CC(=O)c4ccc5c(c4O3)C=CC(C)(C)O5)ccc2O1`: the inhibition in test [2] was less than 50%.
Regarding `O=C(/C=C/c1ccc(O[C@@H]2O[C@H](CO)[C@@H](O)[C@H](O)[C@H]2O)cc1)c1ccc(O)cc1O`, the inhibition in test [2] is less than 50%.
